Results from patent US4684664A, “Derivatives of β-(4-isocyano-1,2,3,4-diepoxycyclopentyl) acrylic acid” (Kureha Kagaku Kogyo Kabushiki Kaisha, priority 1984, dated 1987).
≈ marks a conversion by molar mass, not a printed value.

What was measured:
Assay type in all cases: cell-based
[1] = tested on: Enterobacter cloacae 963; experiment: Antibacterial activity, agar-dilution MIC, organism No. 24; details: Enterobacter cloacae, 963; Organism No. 24, bouillon-agar; read-out: Minimum Inhibitory Concentration
Procedure, shortened: (§1)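 Endpoint: MIC in μg/ml of culture medium. Method: agar dilution. Medium: bouillon agar.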

[2] = tested on: Bacillus subtilis ATCC 6633; experiment: Antibacterial activity, agar-dilution MIC, organism No. 14; details: Bacillus subtilis, ATCC6633; Organism No. 14, bouillon-agar; read-out: Minimum Inhibitory Concentration
Procedure, shortened: as §1

[3] = tested on: Proteus mirabilis IFO 3849; experiment: Antibacterial activity, agar-dilution MIC, organism No. 19; details: Proteus mirabilis, IFO3849; Organism No. 19, bouillon-agar; read-out: Minimum Inhibitory Concentration
Procedure, shortened: as §1

[4] = tested on: Escherichia coli NIHJ-JC-2; experiment: Antibacterial activity, agar-dilution MIC, organism No. 5; details: Escherichia coli, NIHJJC2; Organism No. 5, bouillon-agar; read-out: Minimum Inhibitory Concentration
Procedure, shortened: as §1

[5] = tested on: Staphylococcus aureus FDA 209PJc-1; experiment: Antibacterial activity, agar-dilution MIC, organism No. 1; details: Staphylococcus aureus, FDA209PJC1; Organism No. 1, bouillon-agar; read-out: Minimum Inhibitory Concentration
Procedure, shortened: as §1

[6] = tested on: Streptococcus pyogenes IFO 3340; experiment: Antibacterial activity, agar-dilution MIC, organism No. 26; details: Streptococcus pyogenes, IFO3340; Organism No. 26, bouillon-agar; read-out: Minimum Inhibitory Concentration
Procedure, shortened: as §1

[7] = tested on: Klebsiella pneumoniae PCI-602; experiment: Antibacterial activity, agar-dilution MIC, organism No. 7; details: Klebsiella pneumoniae, PCI602; Organism No. 7, bouillon-agar; read-out: Minimum Inhibitory Concentration
Procedure, shortened: as §1

[8] = tested on: Micrococcus luteus ATCC 9341; experiment: Antibacterial activity, agar-dilution MIC, organism No. 25; details: Micrococcus luteus, ATCC9341; Organism No. 25, bouillon-agar; read-out: Minimum Inhibitory Concentration
Procedure, shortened: as §1

[9] = tested on: Salmonella typhimurium IID 971; experiment: Antibacterial activity, agar-dilution MIC, organism No. 8; details: Salmonella enterica; Organism No. 8, bouillon-agar; read-out: Minimum Inhibitory Concentration
Procedure, shortened: as §1

[10] = tested on: Staphylococcus aureus MS 353; experiment: Antibacterial activity, agar-dilution MIC, organism No. 3; details: Staphylococcus aureus, MS353; Organism No. 3, bouillon-agar; read-out: Minimum Inhibitory Concentration
Procedure, shortened: as §1

[11] = tested on: Serratia marcescens IAM 1184; experiment: Antibacterial activity, agar-dilution MIC, organism No. 13; details: Serratia marcescens, IAM1184; Organism No. 13, bouillon-agar; read-out: Minimum Inhibitory Concentration
Procedure, shortened: as §1

[12] = tested on: Pseudomonas aeruginosa NCTC 10490; experiment: Antibacterial activity, agar-dilution MIC, organism No. 16; details: Pseudomonas aeruginosa, NCTC10490; Organism No. 16, bouillon-agar; read-out: Minimum Inhibitory Concentration
Procedure, shortened: as §1

[13] = tested on: Streptococcus faecium IFO 3826; experiment: Antibacterial activity, agar-dilution MIC, organism No. 27; details: Enterococcus faecium, IFO3826; Organism No. 27, bouillon-agar; read-out: Minimum Inhibitory Concentration
Procedure, shortened: as §1

[14] = tested on: Proteus rettgeri IFO 3850; experiment: Antibacterial activity, agar-dilution MIC, organism No. 22; details: Providencia rettgeri, IFO3850; Organism No. 22, bouillon-agar; read-out: Minimum Inhibitory Concentration
Procedure, shortened: as §1

[15] = tested on: Enterobacter aerogenes ATCC 13048; experiment: Antibacterial activity, agar-dilution MIC, organism No. 23; details: Klebsiella aerogenes, ATCC13048; Organism No. 23, bouillon-agar; read-out: Minimum Inhibitory Concentration
Procedure, shortened: as §1

[16] = tested on: Mycoplasma pneumoniae IID817; experiment: Antimycoplasmal activity, MIC by phenol red colour change, organism No. 28; details: Mycoplasma, IID817; Organism No. 28, PPLO broth + 1% glucose, 37° C.; read-out: Minimum Inhibitory Concentration (MIC)
Description: Mycoplasma pneumoniae IID817 was used as the test microorganism in a culture medium prepared by adding 1% of glucose to "PPLO broth (manufactured by Difco Co.) liquid culture medium" at 37° C. with phenol red as an indicator, thereby culturing the test microorganism.

[17] = tested on: Escherichia coli K12 C600 IAM 1264; experiment: Antibacterial activity, agar-dilution MIC, organism No. 6; details: Escherichia coli, IAM1264; Organism No. 6, bouillon-agar; read-out: Minimum Inhibitory Concentration
Procedure, shortened: as §1

[18] = tested on: Pseudomonas aeruginosa PAO 1; experiment: Antibacterial activity, agar-dilution MIC, organism No. 17; details: Pseudomonas aeruginosa, PAO1; Organism No. 17, bouillon-agar; read-out: Minimum Inhibitory Concentration
Procedure, shortened: as §1

[19] = tested on: Salmonella enteritidis G 14; experiment: Antibacterial activity, agar-dilution MIC, organism No. 12; details: Salmonella enterica, ENTERITIDIS; Organism No. 12, bouillon-agar; read-out: Minimum Inhibitory Concentration
Procedure, shortened: as §1

[20] = tested on: Salmonella typhi 901; experiment: Antibacterial activity, agar-dilution MIC, organism No. 9; details: Salmonella enterica, TYPHI, read-out: Minimum Inhibitory Concentration
Procedure, shortened: as §1

[21] = tested on: Proteus vulgaris OX-19; experiment: Antibacterial activity, agar-dilution MIC, organism No. 20; details: Proteus vulgaris, OX19; Organism No. 20, bouillon-agar; read-out: Minimum Inhibitory Concentration
Procedure, shortened: as §1

[22] = tested on: Candida albicans IAM 4905; experiment: Antifungal activity, agar-dilution MIC, organism No. 29; details: Candida albicans, IAM4905; Organism No. 29, bouillon-agar; read-out: Minimum Inhibitory Concentration
Procedure, shortened: as §1

[23] = tested on: Salmonella shottmuelleri 8006; experiment: Antibacterial activity, agar-dilution MIC, organism No. 11; details: Salmonella, 8006; Organism No. 11, bouillon-agar; read-out: Minimum Inhibitory Concentration
Procedure, shortened: as §1

[24] = tested on: Proteus morganii IFO 3848; experiment: Antibacterial activity, agar-dilution MIC, organism No. 18; details: Morganella morganii, IFO3848; Organism No. 18, bouillon-agar; read-out: Minimum Inhibitory Concentration
Procedure, shortened: as §1

[25] = tested on: Pseudomonas aeruginosa IFO 3445; experiment: Antibacterial activity, agar-dilution MIC, organism No. 15; details: Pseudomonas aeruginosa, IFO3445; Organism No. 15, bouillon-agar; read-out: Minimum Inhibitory Concentration
Procedure, shortened: as §1

[26] = tested on: Proteus vulgaris HX-19; experiment: Antibacterial activity, agar-dilution MIC, organism No. 21; details: Proteus vulgaris, HX19; Organism No. 21, bouillon-agar; read-out: Minimum Inhibitory Concentration
Procedure, shortened: as §1

[27] = tested on: Aspergillus niger IFO 6342; experiment: Antifungal activity, agar-dilution MIC, organism No. 30; details: Aspergillus niger, IFO6342; Organism No. 30, bouillon-agar; read-out: Minimum Inhibitory Concentration
Procedure, shortened: as §1

[28] = tested on: Staphylococcus aureus Terajima; experiment: Antibacterial activity, agar-dilution MIC, organism No. 2; details: Staphylococcus aureus; Organism No. 2, bouillon-agar; read-out: Minimum Inhibitory Concentration
Procedure, shortened: as §1

[29] = tested on: Salmonella paratyphi-A 1015; experiment: Antibacterial activity, agar-dilution MIC, organism No. 10; details: Salmonella enterica, PARATYPHI, read-out: Minimum Inhibitory Concentration
Procedure, shortened: as §1

SMILES | MIC [1] | MIC [2] | MIC [3] | MIC [4] | MIC [5] | MIC [6] | MIC [7] | MIC [8] | MIC [9] | MIC [10] | MIC [11] | MIC [12] | MIC [13] | MIC [14] | MIC [15] | MIC [16] | MIC [17] | MIC [18] | MIC [19] | MIC [20] | further results
[C-]#[N+]C12CC3(/C=C/C(=O)Nc4ccc(C(F)(F)F)cc4)OC3C1O2 (stereo not shown) [compound 46] | > 200 µg/mL | 6.25 µg/mL (≈ 18.6 µM) | > 200 µg/mL | > 200 µg/mL | 0.1 µg/mL (≈ 0.297 µM) | 3.13 µg/mL (≈ 9.31 µM) | 0.39 µg/mL (≈ 1.16 µM) | < 0.05 µg/mL | 50 µg/mL (≈ 149 µM) | < 0.05 µg/mL | 200 µg/mL (≈ 595 µM) | > 200 µg/mL | > 200 µg/mL | 200 µg/mL (≈ 595 µM) | > 200 µg/mL | < 0.2 µg/mL | > 200 µg/mL | > 200 µg/mL | 25 µg/mL (≈ 74.3 µM) | 50 µg/mL (≈ 149 µM) | MIC [21]: 0.39 µg/mL (≈ 1.16 µM); MIC [22]: 1.56 µg/mL (≈ 4.64 µM); MIC [23]: 0.78 µg/mL (≈ 2.32 µM); MIC [24]: 1.56 µg/mL (≈ 4.64 µM); MIC [25]: > 200 µg/mL; MIC [26]: 0.39 µg/mL (≈ 1.16 µM); MIC [27]: 3.13 µg/mL (≈ 9.31 µM); MIC [28]: 0.39 µg/mL (≈ 1.16 µM); MIC [29]: 0.78 µg/mL (≈ 2.32 µM)
[C-]#[N+]C12CC3(/C=C/C(=O)Nc4cccc([N+](=O)[O-])c4)OC3C1O2 (stereo not shown) [compound 48] | 25 µg/mL (≈ 79.8 µM) | 6.25 µg/mL (≈ 20 µM) | 12.5 µg/mL (≈ 39.9 µM) | 25 µg/mL (≈ 79.8 µM) | 0.2 µg/mL (≈ 0.638 µM) | 0.39 µg/mL (≈ 1.24 µM) | 0.2 µg/mL (≈ 0.638 µM) | < 0.05 µg/mL | 3.13 µg/mL (≈ 9.99 µM) | 0.1 µg/mL (≈ 0.319 µM) | 6.25 µg/mL (≈ 20 µM) | > 200 µg/mL | 6.25 µg/mL (≈ 20 µM) | 1.56 µg/mL (≈ 4.98 µM) | > 200 µg/mL | < 0.2 µg/mL | 25 µg/mL (≈ 79.8 µM) | > 200 µg/mL | 3.13 µg/mL (≈ 9.99 µM) | 3.13 µg/mL (≈ 9.99 µM) | MIC [21]: < 0.05 µg/mL; MIC [22]: 3.13 µg/mL (≈ 9.99 µM); MIC [23]: 0.39 µg/mL (≈ 1.24 µM); MIC [24]: 0.2 µg/mL (≈ 0.638 µM); MIC [25]: > 200 µg/mL; MIC [26]: < 0.05 µg/mL; MIC [27]: 3.13 µg/mL (≈ 9.99 µM); MIC [28]: 0.39 µg/mL (≈ 1.24 µM); MIC [29]: 0.39 µg/mL (≈ 1.24 µM)
